Measurements published in the NIST ThermoML archive (doi:10.1021/acs.jced.5b00934).
Numbers after ± are expanded uncertainties.

Details: Liquid, Vibrating tube method

CC(C)(C)O [2-methylpropan-2-ol]
Details	mass density [kg/m3]
333.15 K, 50000 kPa	788.7 ± 0.9
333.15 K, 52050 kPa	790.2 ± 0.9
333.15 K, 55010 kPa	792.3 ± 1
333.15 K, 57996 kPa	794.3 ± 1
333.15 K, 60003 kPa	795.6 ± 1
338.15 K, 100 kPa	737.1 ± 0.8
338.15 K, 309 kPa	737.3 ± 0.8
338.15 K, 505 kPa	737.6 ± 0.8
338.15 K, 898 kPa	738.1 ± 0.8
338.15 K, 1003 kPa	738.2 ± 0.8
338.15 K, 2001 kPa	739.5 ± 0.8
338.15 K, 3005 kPa	740.8 ± 0.8
338.15 K, 5003 kPa	743.2 ± 0.8
338.15 K, 7014 kPa	745.6 ± 0.8
338.15 K, 9004 kPa	747.9 ± 0.8
338.15 K, 10002 kPa	749 ± 0.8
338.15 K, 11998 kPa	751.2 ± 0.8
338.15 K, 14999 kPa	754.4 ± 0.8
338.15 K, 17997 kPa	757.5 ± 0.8
338.15 K, 20007 kPa	759.4 ± 0.9
338.15 K, 21999 kPa	761.4 ± 0.9
338.15 K, 25000 kPa	764.2 ± 0.9
338.15 K, 27994 kPa	766.9 ± 0.9
338.15 K, 30011 kPa	768.6 ± 0.9
338.15 K, 32005 kPa	770.4 ± 0.9
338.15 K, 32998 kPa	771.2 ± 0.9
338.15 K, 33033 kPa	771.2 ± 0.9
338.15 K, 34007 kPa	772 ± 0.9
338.15 K, 35000 kPa	772.9 ± 0.9
338.15 K, 38031 kPa	775.3 ± 0.9
338.15 K, 40024 kPa	776.9 ± 0.9
338.15 K, 41998 kPa	778.5 ± 0.9
338.15 K, 43195 kPa	779.4 ± 0.9
338.15 K, 44574 kPa	780.4 ± 0.9
338.15 K, 46152 kPa	781.6 ± 0.9
338.15 K, 48333 kPa	783.3 ± 0.9
338.15 K, 50050 kPa	784.5 ± 0.9
338.15 K, 52462 kPa	786.3 ± 1
338.15 K, 56690 kPa	789.2 ± 1
338.15 K, 60003 kPa	791.5 ± 1
343.15 K, 99 kPa	731 ± 0.8
343.15 K, 305 kPa	731.3 ± 0.8
343.15 K, 503 kPa	731.6 ± 0.8
343.15 K, 901 kPa	732.1 ± 0.8
343.15 K, 1002 kPa	732.2 ± 0.8
343.15 K, 2000 kPa	733.6 ± 0.8
343.15 K, 3001 kPa	734.9 ± 0.8
343.15 K, 5005 kPa	737.5 ± 0.8
343.15 K, 7004 kPa	740 ± 0.8
343.15 K, 9033 kPa	742.4 ± 0.8
343.15 K, 10020 kPa	743.6 ± 0.8
343.15 K, 12001 kPa	745.8 ± 0.8
343.15 K, 15002 kPa	749.1 ± 0.8
343.15 K, 18001 kPa	752.3 ± 0.9
343.15 K, 20018 kPa	754.4 ± 0.9
343.15 K, 21994 kPa	756.4 ± 0.9
343.15 K, 25026 kPa	759.3 ± 0.9
343.15 K, 27993 kPa	762.1 ± 0.9
343.15 K, 30004 kPa	763.9 ± 0.9
343.15 K, 32000 kPa	765.7 ± 0.9
343.15 K, 32963 kPa	766.6 ± 0.9
343.15 K, 33001 kPa	766.6 ± 0.9
343.15 K, 34002 kPa	767.5 ± 0.9
343.15 K, 35003 kPa	768.3 ± 0.9
343.15 K, 38027 kPa	770.8 ± 0.9
343.15 K, 39998 kPa	772.5 ± 0.9
343.15 K, 42000 kPa	774.1 ± 0.9
348.15 K, 98 kPa	725.1 ± 0.8
348.15 K, 295 kPa	725.3 ± 0.8
348.15 K, 498 kPa	725.7 ± 0.8
348.15 K, 898 kPa	726.2 ± 0.8
348.15 K, 1004 kPa	726.4 ± 0.8
348.15 K, 2006 kPa	727.8 ± 0.8
348.15 K, 3001 kPa	729.2 ± 0.8
348.15 K, 5005 kPa	731.9 ± 0.8
348.15 K, 6999 kPa	734.5 ± 0.8
348.15 K, 9012 kPa	737 ± 0.8
348.15 K, 10014 kPa	738.2 ± 0.8
348.15 K, 12003 kPa	740.6 ± 0.8
348.15 K, 14999 kPa	744 ± 0.8
348.15 K, 17999 kPa	747.3 ± 0.9
348.15 K, 20000 kPa	749.4 ± 0.9
348.15 K, 21998 kPa	751.5 ± 0.9
348.15 K, 24996 kPa	754.4 ± 0.9
348.15 K, 27995 kPa	757.3 ± 0.9
348.15 K, 30045 kPa	759.3 ± 0.9
348.15 K, 32000 kPa	761 ± 0.9
348.15 K, 32878 kPa	761.8 ± 0.9
348.15 K, 33012 kPa	761.9 ± 0.9
348.15 K, 34000 kPa	762.8 ± 0.9
348.15 K, 35001 kPa	763.7 ± 0.9
348.15 K, 38001 kPa	766.3 ± 0.9
348.15 K, 39999 kPa	768 ± 0.9
348.15 K, 41997 kPa	769.6 ± 0.9
348.15 K, 44999 kPa	772 ± 0.9
